According to ChEMBL document CHEMBL1201861, “Genomics of Drug Sensitity in Cancer screening data, Wellcome Trust Sanger Institute”:
Structures can show the parent of a compound that is named as a salt.

How the values were obtained:
[1] = test system: IM-9; experiment: SANGER: Inhibition of human IM-9 cell growth in a cell viability assay.; assay type: functional, cell-based
[2] = test system: ST486; experiment: SANGER: Inhibition of human ST486 cell growth in a cell viability assay.; assay type: functional, cell-based
[3] = test system: NCI-H2171; experiment: cells; assay type: functional, cell-based, Homo sapiens;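 also: growth inhibition of human NCI-H2171 cells, read out by a cell viability assay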
Description: SANGER: Inhibition of human NCI-H2171 cell growth in a cell viability assay.

[4] = test system: CMK; experiment: cells; assay type: functional, cell-based, Homo sapiens;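 also: growth inhibition of CMK cells, read out as cell viability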
Description: SANGER: Inhibition of human CMK cell growth in a cell viability assay.

[5] = test system: NCI-H2452; experiment: cells; assay type: functional, cell-based, Homo sapiens;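 also: growth inhibition of NCI-H2452 cells, read out with a cell viability assay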
Description: SANGER: Inhibition of human NCI-H2452 cell growth in a cell viability assay.

[6] = test system: NCI-H520; experiment: cells; assay type: functional, cell-based, Homo sapiens;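 also: growth inhibition of NCI-H520 cells, measured by a cell viability assay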
Description: SANGER: Inhibition of human NCI-H520 cell growth in a cell viability assay.

[7] = test system: EB-3; experiment: cells; assay type: functional, cell-based, Homo sapiens;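 also: human EB-3 cells, growth inhibition read out via a cell viability assay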
Description: SANGER: Inhibition of human EB-3 cell growth in a cell viability assay.

[8] = test system: MHH-CALL-2; experiment: cells; assay type: functional, cell-based, Homo sapiens;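 also: growth inhibition of the cell line, read out in a cell viability assay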
Description: SANGER: Inhibition of human MHH-CALL-2 cell growth in a cell viability assay.

[9] = test system: Huh-7; experiment: cells; assay type: functional, cell-based, Homo sapiens;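 also: HuH-7 cell growth inhibition, read out with a cell viability assay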
Description: SANGER: Inhibition of human HuH-7 cell growth in a cell viability assay.

[10] = test system: HCC1395; experiment: cells; assay type: functional, cell-based, Homo sapiens;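 also: growth inhibition of HCC1395 cells, read out by a cell viability assay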
Description: SANGER: Inhibition of human HCC1395 cell growth in a cell viability assay.

[11] = test system: U-698-M; experiment: cells; assay type: functional, cell-based, Homo sapiens
Description: SANGER: Inhibition of human U-698-M cell growth in a cell viability assay.

[12] = test system: MC-IXC; experiment: cells; assay type: functional, cell-based, Homo sapiens;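 also: growth inhibition of MC-IXC cells, read out with a cell viability assay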
Description: SANGER: Inhibition of human MC-IXC cell growth in a cell viability assay.

[13] = test system: J82; experiment: cells; assay type: functional, cell-based, Homo sapiens;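 also: growth inhibition of J82 cells, read out with a cell viability assay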
Description: SANGER: Inhibition of human J82 cell growth in a cell viability assay.

[14] = test system: ME-180; experiment: cells; assay type: functional, cell-based, Homo sapiens;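 also: cell viability assay measuring growth inhibition of ME-180 cells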
Description: SANGER: Inhibition of human ME-180 cell growth in a cell viability assay.

[15] = test system: NCI-H650; experiment: cells; assay type: functional, cell-based, Homo sapiens;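 also: growth inhibition of NCI-H650 cells, read out by a viability assay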
Description: SANGER: Inhibition of human NCI-H650 cell growth in a cell viability assay.

[16] = test system: RT-112; experiment: cells; assay type: functional, cell-based, Homo sapiens
Description: SANGER: Inhibition of human RT-112 cell growth in a cell viability assay.

[17] = test system: NCI-H64; experiment: cells; assay type: functional, cell-based, Homo sapiens;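 also: growth inhibition of NCI-H64 cells, read out with a cell viability assay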
Description: SANGER: Inhibition of human NCI-H64 cell growth in a cell viability assay.

[18] = test system: HPAF-II; experiment: cells; assay type: functional, cell-based, Homo sapiens;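 also: growth inhibition of HPAF-II cells, read out with a cell viability assay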
Description: SANGER: Inhibition of human HPAF-II cell growth in a cell viability assay.

[19] = test system: NCI-H2081; experiment: cells; assay type: functional, cell-based, Homo sapiens;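 also: growth inhibition of human NCI-H2081 cells, read out with a cell viability assay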
Description: SANGER: Inhibition of human NCI-H2081 cell growth in a cell viability assay.

[20] = test system: HLE; experiment: cells; assay type: functional, cell-based, Homo sapiens;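 also: growth inhibition of human HLE cells, read out by a cell viability assay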
Description: SANGER: Inhibition of human HLE cell growth in a cell viability assay.

[21] = test system: NCI-H2227; experiment: cells; assay type: functional, cell-based, Homo sapiens;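 also: growth inhibition of the human cell line, read out with a cell viability assay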
Description: SANGER: Inhibition of human NCI-H2227 cell growth in a cell viability assay.

[22] = test system: TCC-SUP; experiment: cells; assay type: functional, cell-based, Homo sapiens;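 also: growth inhibition of TCC-SUP cells, read out with a cell viability assay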
Description: SANGER: Inhibition of human TCCSUP cell growth in a cell viability assay.

[23] = test system: YT; experiment: cells; assay type: functional, cell-based, Homo sapiens
Description: SANGER: Inhibition of human YT cell growth in a cell viability assay.

[24] = test system: TALL-1; experiment: cells; assay type: functional, cell-based, Homo sapiens;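 also: growth inhibition of cultured human TALL-1 cells, read out by a cell viability assay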
Description: SANGER: Inhibition of human TALL-1 cell growth in a cell viability assay.

[25] = test system: OE19; experiment: cells; assay type: functional, cell-based, Homo sapiens;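 also: growth inhibition of OE19 cells, measured through a cell viability read-out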
Description: SANGER: Inhibition of human OE19 cell growth in a cell viability assay.

[26] = test system: 786-0; experiment: cells; assay type: functional, cell-based, Homo sapiens
Description: SANGER: Inhibition of human 786-0 cell growth in a cell viability assay.

[27] = test system: HSC-3; experiment: cells; assay type: functional, cell-based, Homo sapiens
Description: SANGER: Inhibition of human HSC-3 cell growth in a cell viability assay.

[28] = test system: SCC-9; experiment: cells; assay type: functional, cell-based, Homo sapiens;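 also: Read-out is a cell viability assay, with values giving inhibition of cell growth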
Description: SANGER: Inhibition of human SCC-9 cell growth in a cell viability assay.

[29] = test system: A673; experiment: cells; assay type: functional, cell-based, Homo sapiens;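 also: growth inhibition of human A673 cells, read out through a cell viability assay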
Description: SANGER: Inhibition of human A673 cell growth in a cell viability assay.

[30] = test system: RPMI-7951; experiment: cells; assay type: functional, cell-based, Homo sapiens
Description: SANGER: Inhibition of human RPMI-7951 cell growth in a cell viability assay.

[31] = test system: NCI-H2087; experiment: cells; assay type: functional, cell-based, Homo sapiens;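 also: growth inhibition determined with a cell viability readout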
Description: SANGER: Inhibition of human NCI-H2087 cell growth in a cell viability assay.

[32] = test system: YKG-1; experiment: cells; assay type: functional, cell-based, Homo sapiens;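 also: cell growth inhibition, read out with a viability assay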
Description: SANGER: Inhibition of human YKG-1 cell growth in a cell viability assay.

[33] = test system: GCT; experiment: cells; assay type: functional, cell-based, Homo sapiens;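 also: GCT cell line proliferation inhibition, read out with a cell viability assay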
Description: SANGER: Inhibition of human GCT cell growth in a cell viability assay.

[34] = test system: A2780; experiment: cells; assay type: functional, cell-based, Homo sapiens;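 also: growth inhibition of A2780 cells, read out with a cell viability assay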
Description: SANGER: Inhibition of human A2780 cell growth in a cell viability assay.

[35] = test system: MIA PaCa-2; experiment: cells; assay type: functional, cell-based, Homo sapiens;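 also: growth inhibition of MIA PaCa-2 cells, read out with a cell viability assay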
Description: SANGER: Inhibition of human MIA-PaCa-2 cell growth in a cell viability assay.

[36] = test system: MFE-280; experiment: cells; assay type: functional, cell-based, Homo sapiens;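 also: growth inhibition of MFE-280 cells, determined with a cell viability readout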
Description: SANGER: Inhibition of human MFE-280 cell growth in a cell viability assay.

[37] = test system: ASPC1; experiment: cells; assay type: functional, cell-based, Homo sapiens;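 also: growth inhibition of AsPC-1 cells, read out with a cell viability assay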
Description: SANGER: Inhibition of human AsPC-1 cell growth in a cell viability assay.

[38] = test system: SCC-4; experiment: cells; assay type: functional, cell-based, Homo sapiens;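 also: growth inhibition of human SCC-4 cells, read out as cell viability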
Description: SANGER: Inhibition of human SCC-4 cell growth in a cell viability assay.

[39] = test system: KYSE-140; experiment: cells; assay type: functional, cell-based, Homo sapiens;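 also: cell viability assay measuring growth inhibition in human KYSE-140 cells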
Description: SANGER: Inhibition of human KYSE-140 cell growth in a cell viability assay.

[40] = test system: NCI-H1792; experiment: cells; assay type: functional, cell-based, Homo sapiens;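 also: growth inhibition of human NCI-H1792 cells, read out as cell viability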
Description: SANGER: Inhibition of human NCI-H1792 cell growth in a cell viability assay.

[41] = test system: CAL-148; experiment: cells; assay type: functional, cell-based, Homo sapiens
Description: SANGER: Inhibition of human CAL-148 cell growth in a cell viability assay.

[42] = test system: HCT-15; experiment: cells; assay type: functional, cell-based, Homo sapiens;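 also: cell viability readout, IC50 reflecting suppression of HCT-15 cell growth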
Description: SANGER: Inhibition of human HCT-15 cell growth in a cell viability assay.

[43] = test system: ABC-1; experiment: cells; assay type: functional, cell-based, Homo sapiens;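 also: growth inhibition of human ABC-1 cells, read out by a cell viability assay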
Description: SANGER: Inhibition of human ABC-1 cell growth in a cell viability assay.

[44] = test system: NCI-H28; experiment: cells; assay type: functional, cell-based, Homo sapiens;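 also: growth inhibition of human NCI-H28 cells, read out as cell viability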
Description: SANGER: Inhibition of human NCI-H28 cell growth in a cell viability assay.

[45] = test system: ESS-1; experiment: cells; assay type: functional, cell-based, Homo sapiens;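 also: growth inhibition of human ESS-1 cells, read out by a cell viability assay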
Description: SANGER: Inhibition of human ESS-1 cell growth in a cell viability assay.

[46] = test system: G-402; experiment: cells; assay type: functional, cell-based, Homo sapiens
Description: SANGER: Inhibition of human G-402 cell growth in a cell viability assay.

[47] = test system: LB647-SCLC; experiment: cells; assay type: functional, cell-based, Homo sapiens;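 also: cell growth inhibition, read out by a viability assay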
Description: SANGER: Inhibition of human LB647-SCLC cell growth in a cell viability assay.

[48] = test system: NB14; experiment: cells; assay type: functional, cell-based, Homo sapiens; conditions: Homo sapiens, NB14;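 also: growth inhibition of NB14 cells measured with a cell viability assay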
Description: SANGER: Inhibition of human NB14 cell growth in a cell viability assay.

[49] = test system: CFPAC-1; experiment: cells; assay type: functional, cell-based, Homo sapiens; conditions: Homo sapiens, CFPAC-1;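 also: cell viability readout used to gauge suppression of CFPAC-1 cell proliferation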
Description: SANGER: Inhibition of human CFPAC-1 cell growth in a cell viability assay.

COC1=CC(c2cc3ccccc3[nH]2)=N/C1=C\c1[nH]c(C)cc1C [OBATOCLAX MESYLATE]
IC50 ([1]; Homo sapiens, IM-9): 0.33 µM | IC50 ([2]; Homo sapiens, ST486): < 0.0625 µM | IC50 ([3]; Homo sapiens, NCI-H2171): 0.85 µM | IC50 ([4]; Homo sapiens, CMK): 0.0302 µM | IC50 ([5]; Homo sapiens, NCI-H2452): > 16 µM | IC50 ([6]; Homo sapiens, NCI-H520): 0.129 µM | IC50 ([7]; Homo sapiens, EB-3): 0.173 µM | IC50 ([8]; Homo sapiens, MHH-CALL-2): 0.609 µM | IC50 ([9]; Homo sapiens, Huh-7): 0.379 µM | IC50 ([10]; Homo sapiens, HCC1395): 1.93 µM | IC50 ([11]; Homo sapiens, U-698-M): 0.0941 µM | IC50 ([12]; Homo sapiens, MC-IXC): 0.345 µM | IC50 ([13]; Homo sapiens, J82): 0.109 µM | IC50 ([14]; Homo sapiens, ME-180): 1.44 µM | IC50 ([15]; Homo sapiens, NCI-H650): 0.283 µM | IC50 ([16]; Homo sapiens, RT-112): 0.666 µM | IC50 ([17]; Homo sapiens, NCI-H64): 0.0384 µM | IC50 ([18]; Homo sapiens, HPAF-II): 1.94 µM | IC50 ([19]; Homo sapiens, NCI-H2081): 0.781 µM | IC50 ([20]; Homo sapiens, HLE): 0.169 µM | IC50 ([21]; Homo sapiens, NCI-H2227): > 16 µM | IC50 ([22]; Homo sapiens, TCC-SUP): 1.25 µM | IC50 ([23]; Homo sapiens, YT): 0.0734 µM | IC50 ([24]; Homo sapiens, TALL-1): > 16 µM | IC50 ([25]; Homo sapiens, OE19): 1.66 µM | IC50 ([26]; Homo sapiens): < 0.0625 µM | IC50 ([27]; Homo sapiens, HSC-3): < 0.0625 µM | IC50 ([28]; Homo sapiens, SCC-9): 1.24 µM | IC50 ([29]; Homo sapiens, A673): 0.752 µM | IC50 ([30]; Homo sapiens, RPMI-7951): 0.51 µM | IC50 ([31]; Homo sapiens, NCI-H2087): 0.13 µM | IC50 ([32]; Homo sapiens, YKG-1): 0.163 µM | IC50 ([33]; Homo sapiens, GCT): 2.59 µM | IC50 ([34]; Homo sapiens, A2780): 0.0208 µM | IC50 ([35]; Homo sapiens, MIA PaCa-2): 0.233 µM | IC50 ([36]; Homo sapiens, MFE-280): 0.963 µM | IC50 ([37]; Homo sapiens, ASPC1): 7.49 µM | IC50 ([38]; Homo sapiens, SCC-4): 2.14 µM | IC50 ([39]; Homo sapiens, KYSE-140): < 0.0625 µM | IC50 ([40]; Homo sapiens, NCI-H1792): 0.377 µM | IC50 ([41]; Homo sapiens, CAL-148): 1.04 µM | IC50 ([42]; Homo sapiens, HCT-15): 0.225 µM | IC50 ([43]; Homo sapiens, ABC-1): 0.505 µM | IC50 ([44]; Homo sapiens, NCI-H28): 0.741 µM | IC50 ([45]; Homo sapiens, ESS-1): 0.0725 µM | IC50 ([46]; Homo sapiens, G-402): 0.565 µM | IC50 ([47]; Homo sapiens, LB647-SCLC): 15.7 µM

Cn1cnc2c(F)c(Nc3ccc(Br)cc3Cl)c(C(=O)NOCCO)cc21 [SELUMETINIB]
IC50 ([5]; Homo sapiens, NCI-H2452): > 4 µM | IC50 ([6]; Homo sapiens, NCI-H520): > 4 µM | IC50 ([9]; Homo sapiens, Huh-7): > 4 µM | IC50 ([10]; Homo sapiens, HCC1395): > 4 µM | IC50 ([12]; Homo sapiens, MC-IXC): > 4 µM | IC50 [48]: > 4 µM | IC50 ([14]; Homo sapiens, ME-180): > 4 µM | IC50 ([15]; Homo sapiens, NCI-H650): > 4 µM | IC50 ([16]; Homo sapiens, RT-112): 2.26 µM | IC50 ([18]; Homo sapiens, HPAF-II): 3.34 µM | IC50 ([20]; Homo sapiens, HLE): > 4 µM | IC50 ([22]; Homo sapiens, TCC-SUP): > 4 µM | IC50 ([25]; Homo sapiens, OE19): > 4 µM | IC50 ([26]; Homo sapiens): > 4 µM | IC50 ([27]; Homo sapiens, HSC-3): 1.19 µM | IC50 ([28]; Homo sapiens, SCC-9): > 4 µM | IC50 ([29]; Homo sapiens, A673): > 4 µM | IC50 ([30]; Homo sapiens, RPMI-7951): > 4 µM | IC50 ([31]; Homo sapiens, NCI-H2087): 1.38 µM | IC50 ([32]; Homo sapiens, YKG-1): > 4 µM | IC50 ([33]; Homo sapiens, GCT): > 4 µM | IC50 ([34]; Homo sapiens, A2780): > 4 µM | IC50 ([35]; Homo sapiens, MIA PaCa-2): 0.898 µM | IC50 ([36]; Homo sapiens, MFE-280): > 4 µM | IC50 ([37]; Homo sapiens, ASPC1): 0.324 µM | IC50 ([38]; Homo sapiens, SCC-4): > 4 µM | IC50 ([39]; Homo sapiens, KYSE-140): > 4 µM | IC50 [49]: > 4 µM | IC50 ([40]; Homo sapiens, NCI-H1792): > 4 µM | IC50 ([43]; Homo sapiens, ABC-1): > 4 µM | IC50 ([44]; Homo sapiens, NCI-H28): > 4 µM | IC50 ([45]; Homo sapiens, ESS-1): > 4 µM | IC50 ([46]; Homo sapiens, G-402): > 4 µM

BLEOMYCIN
IC50 ([1]; im-9): 4.13 µM | IC50 ([2]; st486): 6.39 µM | IC50 ([3]; nci-h2171): 1420 µM | IC50 ([4]; cmk): 14.8 µM | IC50 ([5]; nci-h2452): 2140 µM | IC50 ([6]; nci-h520): 16.1 µM | IC50 ([7]; eb-3): 21.8 µM | IC50 ([8]; mhh-call-2): 0.535 µM | IC50 ([9]; huh-7): 2.43 µM | IC50 ([10]; hcc1395): 0.501 µM | IC50 ([11]; u-698-m): 13 µM | IC50 ([12]; mc-ixc): 3 µM | IC50 ([13]; j82): 0.774 µM | IC50 ([14]; me-180): 40.9 µM | IC50 ([15]; nci-h650): 0.000587 µM | IC50 ([16]; rt-112): 2.32 µM | IC50 ([17]; nci-h64): 0.641 µM | IC50 ([18]; hpaf-ii): 233 µM | IC50 ([19]; nci-h2081): 221 µM | IC50 ([20]; hle): 4 µM | IC50 ([21]; nci-h2227): 721 µM | IC50 ([22]; tcc-sup): 15.9 µM | IC50 ([23]; yt): 1.32 µM | IC50 ([24]; tall-1): 244 µM | IC50 ([25]; oe19): 2.14 µM | IC50 [26]: 0.0808 µM | IC50 ([27]; hsc-3): 0.688 µM | IC50 ([28]; scc-9): 403 µM | IC50 ([29]; a673): 10.5 µM | IC50 ([30]; rpmi-7951): 1.24 µM | IC50 ([31]; nci-h2087): 2.35 µM | IC50 ([32]; ykg-1): 3.26 µM | IC50 ([33]; gct): 4.99 µM | IC50 ([34]; a2780): 0.22 µM | IC50 ([35]; mia paca-2): 0.111 µM | IC50 ([36]; mfe-280): 359 µM | IC50 ([37]; aspc1): 82.5 µM | IC50 ([38]; scc-4): 2.43 µM | IC50 ([39]; kyse-140): 3.9 µM | IC50 ([40]; nci-h1792): 2.57 µM | IC50 ([41]; cal-148): 4.6 µM | IC50 ([42]; hct-15): 0.0951 µM | IC50 ([43]; abc-1): 19.7 µM | IC50 ([44]; nci-h28): 2.74 µM | IC50 ([45]; ess-1): 0.187 µM | IC50 ([46]; g-402): 0.0765 µM | IC50 ([47]; lb647-sclc): 3.14 µM
